The test system of data set [1] is fluid phase and Megalin mediated clathrin mediated endocytosis in S1 and non-S1 proximal tubule segments. The experiment in a line: Intra-vital 2-photon quantification of proximal tubule uptake of fluorescent endocytic markers after RAP or vehicle. The format is in vivo, rat. The protocol: Rats were given either RAP or saline vehicle followed by a bolus containing a fluid phase endocytic marker (10,000 MW Cascade Blue Dextra, CB-dex) and a receptor mediated uptake marker (Texas Red Rat Serum Albumin, Rat Albumin). […] The results of this experiment are illustrated in FIG. 3. […] Ten minutes later, a bolus of Texas Red rat serum albumin (TR-RSA) and 10 kDa Cascade Blue dextran was given. […] Images collected from these studies at approximately 15, 30, and 60 minutes post initial infusion were quantified for TR-RSA and 10 kDa dextran uptake in either vehicle or RAP treated rats, in both S1 and non-S1 proximal tubule segments. Values were reported as normalized fluorescence, with the values normalized to the highest average value in the study group. […] The differences between vehicle and RAP treated were significant at all three time points studied and in both the S1 and non-S1 proximal tubule segments. […] The lower glomerular sieving coefficient of the RSA results in less RSA filtration and this a slower, protracted uptake that appears linear over time, with the S1 segment having the greatest accumulation.

The subject of data set [2] is uninephrectomy chronic kidney disease model in Munich Wister Fromter rats. The experiment in a line: Gentamicin induced nephrotoxicity in uninephrectomy chronic kidney disease rat model, with or without RAP. As to conditions: for Serum Cr: daily gentamicin 100 mg/kg intraperitoneal with RAP 40 mg/kg intravenous, p<0.01 vs without RAP; for Urinary protein: CKD pretreatment baseline 221±40. The procedure:
Rats with a Chronic Kidney Disease (CKD) background were given either saline or 40 mg/kg RAP. […] Serum creatinine, an indicator of renal function, was measured in both rat populations at day 0, 3, 4, 5, and 6.

The subject of data set [3] is fluid phase and Megalin mediated clathrin mediated endocytosis in S1 and non-S1 proximal tubule segments. The experiment in a line: Intra-vital 2-photon quantification of proximal tubule uptake of fluorescent endocytic markers after RAP or vehicle. The format is in vivo, rat. The source holds these as a separate data set.
The mark [4] stands for this setting: RAP vs saline vehicle, 15', 30', 60' post bolus, S1 and non-S1 segments, FIG. 3.
Setting [5] is: S1 segment, 60 minutes post initial bolus infusion, RAP 40 mg/Kg, FIG. 4B.
[6] abbreviates: normal rats, over 60 minutes, RAP 40 mg/kg intravenous.

The text below walks through data of US20250090629A1, “ALLEVIATING DRUG NEPHROTOXICITY” (The Trustees of Indiana University, priority 2021, published 2025).

In the case of “RAP: 39 kD protein, molecular chaperone for LDL receptor-related proteins such as Megalin; endocytosis inhibitor; SEQ ID NO 1-3 (human, rat, mouse)”, in data set [1] (setting [4]), the “10,000 MW Cascade Blue Dextran (CB-dex) proximal tubule uptake and accumulation” value is “reduction”; the “Texas Red Rat Serum Albumin proximal tubule uptake and accumulation” value is given as “reduction”. Further, in data set [1] (setting [5]), the “10 kDa dextran accumulation in single plane images” value is on record as “only faint accumulation” and the “TR-RSA uptake in single plane images” value was “virtually no uptake”. In addition, in data set [1] (S1 segment, RAP 40 mg/Kg, FIG. 4C), the “Reduction of 10 kDa Cascade Blue dextran uptake vs vehicle” value was “over 5 fold”. Also, in data set [1] (about 15, 30 and 60 minutes, both S1 and non-S1 proximal tubule segments, FIG. 4E, 4F), the “RSA uptake (normalized fluorescence) compared to vehicle treated rats” value was “significantly reduced”. In addition, the “Reduction of 10 kDa Cascade Blue dextran uptake vs vehicle” value in data set [1] (non-S1 proximal tubule segments, RAP 40 mg/Kg, FIG. 4D) came out at 2 fold. In data set [1] (normal rats), the “Reversibility of the reduction of S1 proximal tubule uptake” value is given as “rapid fully reversible”. For the same substance, in data set [1] (setting [6]), the “Reduction of S1 proximal tubule albumin uptake” value was determined as 80% and the “Reduction of S1 proximal tubule dextran uptake” value was determined as 67%. In addition, the “Nature of the inhibition of endocytosis” value in data set [1] (without causing lasting effects on kidney function) was “temporary and reversible”. Also, in data set [2] (CKD rats, RAP 40 mg/kg plus gentamicin 100 mg/kg intraperitoneal daily for five days, day 0, 3, 4, 5, 6, FIG. 1), the “Serum creatinine (indicator of renal function), change over time” value is listed as “did not exhibit the same increase in serum creatinine”. Also, the “Serum Cr” value in data set [2] (day 5) turned out to be 1.4 ± 0.5 mg/dL. Besides, the “Serum Cr” value in data set [2] (day 6) came out at 1.5 ± 0.5 mg/dL. Moreover, the 24-hour creatinine clearance in data set [2] (gentamicin with RAP, CKD pretreatment baseline 0.91=0.22 ml/min) came to 0.49 ± 0.16 mL/min. In addition, the Urinary protein in data set [2] (gentamicin with RAP) is listed as 488 mg/ml/100 μm wt. In addition, in data set [3] (RAP 40 mg/kg vs saline vehicle, then single bolus of Texas Red Gentamicin, S1 and non-S1 proximal tubule segments, FIG. 2), the “Texas Red Gentamicin accumulation (average fluorescence intensity)” value is listed as “Decreased”. For the same substance, the “Reduction of S1 proximal tubule gentamicin uptake” value in data set [3] (setting [6]) was determined as 62%.
On to gentamicin [reference compound], for which the Urinary protein in data set [2] (gentamicin without RAP) is listed as 2,512 mg/ml/100 μm wt.
